Source: patent US12458650B2, “Urination disorder-improving agent” (ASKA Pharmaceutical Co., Ltd., priority 2019, dated 2025)

How the values were obtained:
[1] = system: lower urinary tract obstruction model of rats; test: Test Example 2: urination function in male rat lower urinary tract obstruction model (cystometry under no anesthesia); format: in vivo; details: Group A: 10 mg/kg oral once a day, 14 days, in comparison with Group C (dutasteride 0.5 mg/kg), FIG. 7, 8
From the text: A lower urinary tract obstruction model of rats was used as a test system. A test substance was orally administered to the lower urinary tract obstruction model repeatedly over 14 days to examine the action on the urination function in the lower urinary tract obstruction model. The lower urinary tract obstruction model is not a benign prostatic hyperplasia model with enlarged prostate.
More specifically, the rats (male, Crl:CD(SD), 8-week-old; Charles River Laboratories Japan, Inc.) were operated to form lower urinary tract obstruction and repeatedly received oral administration of the test substance at a frequency of once a day over 14 days. After the completion of the administration, each rat was subjected to bladder catheterization under anesthesia and cystometry under no anesthesia and was evaluated for the residual urine volume and the urination efficiency.
The test substances and the dosage in the test system (male rats with lower urinary tract obstruction) are as follows. • Solvent group (control group): 0.5 v/v % Polysorbate 80 solution, 10 mL/kg (n=8) • Group A: Compound A, 10 mg/kg (n=12) • Group C: Compound C (dutasteride), 0.5 mg/kg (n=11) • Dutasteride is a 5a reductase inhibitor.

[2] = system: urination disorder model associated with diabetes; test: Test Example 4: urination disorder model associated with streptozocin-induced diabetes (cystometry, tissue weights, blood glucose, nomogram); format: in vivo, rat; details: for Prostate, Dorsolateral prostate weight / Prostate, Ventral prostate weight: average ± SD; for Dorsolateral prostate (atrophy rate) / Seminal vesicle (atrophy rate) / Ventral prostate (atrophy rate) / Whole prostate (atrophy rate): relative to solvent group; for bladder contraction force on urination by nomogram analysis: in comparison with solvent group, FIG. 17
Protocol: As described below, as a urination disorder model, a urination disorder model associated with diabetes was prepared to evaluate the urination disorder. This model has no benign prostatic hyperplasia and is a model of a urination disorder associated with neuropathy and smooth muscle contraction disorder.
The body weights of rats (male, Crl:CD(SD), 5-week-old; Charles River Laboratories Japan, Inc.) were measured. After the rats were fasted overnight, the blood was collected from the caudal vein to measure the fasting blood glucose. On the basis of the body weight and the tasting blood glucose level, the rats were grouped or divided into two (2) groups by randomized, multivariable block allocation. The day after the rats were grouped, a first group received intraperitoneal administration of a citrate buffer (pH 4.5) (10 mL/kg) having a concentration of 0.1 mmol/L, and a second group received intraperitoneal administration of streptozocin (STZ; Sigma-Aldrich) (50 mg/kg). Streptozocin (STZ) was administered in the form of a solution of streptozocin having a concentration of 5 mg/mL in the citrate buffer.
About one (1) week after streptozocin (STZ) was administered, the body weight and the fasting blood glucose were measured. In the streptozocin (STZ) administration group (the second group), individuals having a fasting blood glucose level of not less than 300 mg/dL were used as animals with induced diabetes. These animals with induced diabetes are a model having no abnormality of the prostate (having no benign prostatic hyperplasia). On the basis of the body weight and the fasting blood glucose level, the animals (models) with induced diabetes were grouped or divided into three (3) groups by randomized, multivariable block allocation.
To the three model groups with induced diabetes, a 0.5 v/v % Polysorbate 80 solution (0.5% P) (10 mL/kg), the compound A (3 mg/kg), and the compound A (10 mg/kg) were orally administered, respectively, wherein the administration schedule in all groups was a frequency of once a day, only on weekdays, over four (4) weeks. Moreover, to the above-mentioned first group, a 0.5 v/v % Polysorbate 80 solution (0.5% P) (10 mL/kg) was orally administered in the same administration schedule (normal group). On the last day of administration, a cannula was inserted into and secured to the dome of the bladder under isoflurane anesthesia, and cystometry (Cystometogram, CMG) was conducted in the order of under awake condition and under urethane anesthesia to measure the intravesical pressure, the voided volume, and the residual urine volume. After the completion of the measurement, the blood was collected under deep isoflurane anesthesia, and then the prostate (ventral prostate, dorsolateral prostate), the seminal vesicle, the bladder, and the kidney were extracted and were each weighed. Moreover, the blood glucose level in the collected blood was measured.
The test substances and the dosage in the test system (rats having the urination disorder associated with diabetes) are as follows. • Normal group: citrate buffer 10 mL/kg (intraperitoneal administration), 0.5% P 10 mL/kg (oral administration) (n=10) • Solvent group (control group): STZ 50 mg/kg (intraperitoneal administration), 0.5% P 10 mL/kg (oral administration) (n=10) • Group A3: STZ 50 mg/kg (intraperitoneal administration), Compound A 3 mg/kg (oral administration) (n=10) • Group A10: STZ 50 mg/kg (intraperitoneal administration), Compound A 10 mg/kg (oral administration) (n=9) Urination Parameter:
The resulting data of the intravesical pressure, the voided volume, and the residual urine volume were analyzed, and the bladder capacity (mL), the residual urine volume (mL), and the urination efficiency (%) were determined as urination parameters in each urination. With respect to these urination parameters, the average value of two measurements was calculated and was taken as a measured value of each individual. […]

[3] = Group A3: 3 mg/kg oral, 4 weeks
[4] = Group A10: 10 mg/kg oral, 4 weeks

CC(=O)O[C@]1(C(C)=O)C[C@@H](O)[C@H]2[C@@H]3C=C(Cl)C4=CC(=O)OC[C@]4(C)[C@H]3CC[C@@]21C [Compound A, 17α-acetoxy-6-chloro-15β-hydroxy-2-oxa-4,6-pregnadiene-3,20-dione]
urination function (the residual urine volume, the urination efficiency) [1]: strong improvement action | Prostate, Dorsolateral prostate weight [2, 3]: 35.3 ± 7.8 mg/100 g body weight | Prostate, Ventral prostate weight ([2]; Group A3: 3 mg/kg oral, 4 weeks, male STZ rats): 62.2 ± 11.4 mg/100 g body weight | Dorsolateral prostate (atrophy rate) [2, 3]: (44.2%) | Seminal vesicle (atrophy rate) [2, 3]: (41.8%) | Ventral prostate (atrophy rate) [2, 3]: (43.0%) | Whole prostate (atrophy rate) [2, 3]: (43.4%) | urination efficiency ([2]; Group A3: 3 mg/kg, cystometry under anesthesia, FIG. 16): improved | bladder contraction force on urination by nomogram analysis ([2]; Group A3: 3 mg/kg, cystometry under anesthesia): strong bladder contraction force | residual urine volume ([2]; Group A3: 3 mg/kg, cystometry under anesthesia, vs solvent group, FIG. 15): significantly decreased | bladder capacity ([2]; Group A3: 3 mg/kg, cystometry under awake condition, vs solvent group, FIG. 11): significantly reduced | residual urine volume ([2]; Group A3: 3 mg/kg, cystometry under awake condition, vs solvent group, FIG. 12): significantly reduced | urination efficiency ([2]; Group A3: 3 mg/kg, cystometry under awake condition, vs solvent group, FIG. 13): improved | therapeutic effect on diabetes (blood glucose level relative to the solvent group) ([2]; Group A3 and Group A10: 3 and 10 mg/kg oral, 4 weeks): no therapeutic effect on diabetes | Prostate, Dorsolateral prostate weight [2, 4]: 28.8 ± 6.1 mg/100 g body weight | Prostate, Ventral prostate weight [2, 4]: 53.1 ± 13.5 mg/100 g body weight | Dorsolateral prostate (atrophy rate) [2, 4]: (54.5%) | Seminal vesicle (atrophy rate) [2, 4]: (50.2%) | Ventral prostate (atrophy rate) [2, 4]: (51.3%) | Whole prostate (atrophy rate) [2, 4]: (52.5%) | urination efficiency ([2]; Group A10: 10 mg/kg, cystometry under anesthesia, FIG. 16): improved | bladder capacity ([2]; Group A10: 10 mg/kg, cystometry under anesthesia, P=0.0336, FIG. 14): reduced | bladder contraction force on urination by nomogram analysis ([2]; Group A10: 10 mg/kg, cystometry under anesthesia): strong bladder contraction force | residual urine volume ([2]; Group A10: 10 mg/kg, cystometry under anesthesia, vs solvent group, FIG. 15): significantly decreased | bladder capacity ([2]; Group A10: 10 mg/kg, cystometry under awake condition, vs solvent group, FIG. 11): significantly reduced | residual urine volume ([2]; Group A10: 10 mg/kg, cystometry under awake condition, vs solvent group, FIG. 12): significantly reduced | urination efficiency ([2]; Group A10: 10 mg/kg, cystometry under awake condition, vs solvent group, P=0.0359, FIG. 13): significantly improved
